These results are taken from US5942494A, “Stimulation of gene expression and synthesis of heat shock protein 72/73 (HSP 70)” (The Trustees of Columbia University in the City of New York, priority 1996, dated 1999).

Square brackets hold non-standard residues; d marks the D form. Peptide text beside a SMILES is read from it. Nle = CCCC[C@H](N)C(=O)O

One data set relates to Hsp60. Nature of the data set: Immunoprecipitation of Hsp60 from radiolabeled HepG2 cells. Format: cell-based, human. The conditions noted are these: HepG2, ALLN 4 hours. The method, then:
(§1) FIGS. 7A-7B: Effects of ALLN on the biosynthesis of other members of Hsp family and related proteins. HepG2 cells were pre-treated and radiolabeled with or without ALLN for 4 hours as described in FIG. 1. Cell lysates were used for SDS-PAGE (A), or for immunoprecipitation with anti-Hsp25, -Hsp27, -Hsp60, -Hsp70, -Hsp86, -Hsp90, -Hsp104, -Bip, or -albumin antibodies respectively (1 μg/ml) (B). Because the anti-Hsp25, -Hsp27, -Hsp60 and Hsp90 antibodies are from a rat source, rabbit anti-rat IgG antibody was added after the first incubation, and the incubation was extended for another 1 hour at 4° C. before collection with protein A-Sepharose.Immunoprecipitates were loaded for SDS-PAGE and aliquoted for scintillation counting and plotting. Each value was presented as mean ±S.D. from three individual culture dishes.
(§2) HepG2 cells were preincubated for 4 hours in serum-free MEM and then radiolabeled with ^3 H-Leucine (150 μCi/ml) in a serum-free, leucine-free medium. […] Cell lysates containing equal amounts of trichloroacetic acid (TCA)-insoluble radioactivity were used for immunoprecipitations by incubating with individual monoclonal antibody (1 μg/ml) for 2.5 hours at 4° C. […]

The subject of data set [1] is 3-hydroxy-3-methylglutaryl-coenzyme A (HMG-CoA) reductase. As to conditions: Inoue, et al., 1991; cited from earlier work.
The subject of a further data set is HSF1. The data set can be described thus: Western blot of steady-state HSF1 protein levels in HepG2 whole cell extracts. In kind it is cell-based, human. As to conditions: ALLN 40 μg/ml, 2 hours, with or without cycloheximide. As for the experimental part: FIGS. 6A-6B: ALLN affects the trimerization of HSF. HepG2 cells were treated with serum-free MEM containing 1.5% BSA for 2 hours at 37° C. without any additions (lane1), at 37 ° C. but containing 40μg/ml of ALLN in the medium (lane2), at 37° C. in a medium containing both ALLN and 50 μg/ml of cycloheximide (lane3) , at 42° C. alone (lane4), or at 42° C. plus cycloheximide in the medium (lane5). Cell lysates were prepared as described under Experimental Details. The lysates were either directly run on the SDS-PAGE (A) to show the steady-state protein levels of HSF1 or subjected to cross-linking with ethylene glycol bis sucrinimidylsuccinate (EGS) before running the gel (B) to show the oligomeric forms of HSF1. The proteins were then transfered to a nitrocellulose membrane and immunoblotted with anti-human HSF1 antibody. Arrows on the right side indicates the monomeric, dimeric or trimeric forms of HSF1, respectively. This experiment was repeated three times with identical results.
For measurement of the steady-state HSF1 protein levels, whole cell extracts were prepared by lysing the cells directly with 2×SDS-sample buffer (Maniatis, et al., 1982). For chemical cross-linking experiments, whole-cell extracts were prepared as described (Mosser, et al., 1988). Briefly, the cold PBS-washed cell pellets were quickly and repeatedly frozen in liquid nitrogen. […]
For orientation: Immunoblotting shows a protein as a band on a membrane.

A further data set relates to Bip. Nature of the data set: Immunoprecipitation of Bip from radiolabeled HepG2 cells. Format: cell-based, human. As to conditions: HepG2, ALLN 4 hours. As for the experimental part:
as §1, §2

A further data set relates to HepG2 cells. Nature of the data set: Total incorporation of radiolabel (TCA cpm) as indicator of cell toxicity, HepG2. In kind it is cell-based, human. As to conditions: ALLN 10 μg/ml, HepG2. The method, then:
HepG2 cells were preincubated for 4 hours in serum-free MEM and then radiolabeled with ^3 H-Leucine (150 μCi/ml) in a serum-free, leucine-free medium. Preincubation and labeling media each contained either 1.5% bovine serum albumin (BSA) alone, or BSA plus ALLN (40 μg/ml except as otherwise indicated), or BSA plus other protease inhibitors at concentrations indicated in the figure legends. At the indicated times, cells were removed from the 37° C. incubator and placed on ice, washed with cold phosphate-buffer saline (PBS) twice and lysed with lysis buffer containing 1% Triton X-100 (TX100), 1% deoxycholic acid (DOC) and 0.1% SDS in PBS containing proteinase inhibitors: 2 mM phenylmethylsulfonyl fluoride (PMSF); 2 μg/ml ALLN; 2 μg/ml leupeptin; and 2 μg/ml aprotinin. After a 30 min. incubation with lysis buffer at 4° C., the lysates were centrifuged at 14,000 g in a microcentrifuge for 5 min., and the supernatants were adjusted to 1% SDS concentration and boiled for 5 min. to denature the proteins. 1% TX100 was then added to dilute the lysates to a final concentration of 0.1% SDS. Cell lysates containing equal amounts of trichloroacetic acid (TCA)-insoluble radioactivity were used for immunoprecipitations by incubating with individual monoclonal antibody (1 μg/ml) for 2.5 hours at 4° C. Protein-A Sepharose 4B was added afterwards and the lysates incubated for another 1.5 hours at 4° C. to collect the immunocomplexes. After washing four times with 1×NET buffer (containing 0.5% TX100, 0.1% SDS), the immunocomplexes were mixed with sample buffer and boiled for 5 min. Following centrifugation, the supernatants were aliquoted for scintillation counting and for 3-15% gradient polyacrymide gel electrophoresis (SDS-PAGE) . The gels were later subjected to fluorography. All values are presented as the mean ± S.D. from three individual experiments except as otherwise indicated.

In the case of `CCCC[C@@H](C=O)NC(=O)[C@H](CC(C)C)NC(=O)[C@H](CC(C)C)NC(C)=O` [ALLN, N-acetyl-leucyl-leucyl-norleucinal] (Ac-Leu-Leu-[Nle]-aldehyde), the “Effect on Hsp60” value in the data set on Hsp60 is “no effects”. Also, the “Protection of HMG-CoA reductase” value in data set [1] was “protected”. The “Steady-state levels of HSF1 in whole cell extracts” value in the data set with HSF1 is “not significantly affected”. The “Effect on Bip” value in the data set with Bip is listed as “no effects”. Besides, the “Cell total incorporation of radiolabel (TCA cpm, an indicator of cell toxicity)” value with HepG2 cells is given as “did not change significantly”.
